This passage reports Km and mechanism of inhibition results from patent US7897330B2, “Methods for characterizing enzyme inhibitors” (AB Sciex, LLC, priority 2005, dated 2011).

One assay addresses P. falciparum LDH (Plasmodium falciparum, UniProt Q27743). Nature of the assay: fluorescence-coupled LDH enzyme assay on microfluidics system, continuously variable concentration gradient, fit to Equation 4. In kind it is biochemical. From the text:
A fluorescence-coupled enzyme assay was developed using a microfluidics system described herein for creating a continuously variable concentration gradient to monitor the reduction of NAD^+ by the enzyme LDH to give a fluorescent end product. This system was then adapted to measure potency and determine mechanism of inhibition by various inhibitors of LDH.
One of the products of the reaction in the assay, NADH, is coupled to Thermus thermophilus NADH oxidase to generate H2O2, which in turn is coupled to horseradish peroxidase which reacts with […] and amplex red (Molecular Probes, Inc., Eugene, Oreg., U.S.A.) to give the fluorescent product resorufin. […]
The novel data analysis techniques described herein for determining the mechanism of inhibition of an inhibitor (or mechanism of activation of an activator) are applied to the data produced from the microfluidics system. The titration of the enzyme with a continuous linear variation of inhibitor and substrate from zero to a pre-determined finite concentration yields a characteristic rate profile that is defined by the specific type of interaction of the inhibitor and enzyme with respect to the substrate. […]
The titration of LDH with a linear gradient of NAD^+ was performed on the microfluidics system described herein with the change in relative fluorescence intensity monitored under initial rate conditions. […]

Assay [1] deals with T1, rabbit muscle lactate dehydrogenase (LDH) (Oryctolagus cuniculus, UniProt P13491).
T1 construct: the enzyme rabbit muscle lactate dehydrogenase (LDH); from tissue; host or cells: rabbit muscle
Description: continuous variation method on microtiter plate, step concentration gradients. The class given is biochemical. From the text: Determination of the mechanism of inhibition by the inhibitor oxalate with respect to the substrate NAD^+ against the enzyme rabbit muscle lactate dehydrogenase (LDH) using a microtiter plate to generate individual step concentration gradients was attempted. FIG. 47 is a graph showing the results of the experiment. An attempt to determine the mechanism of inhibition by the inhibitor oxalate with respect to the substrate lactate against the enzyme rabbit muscle LDH using a microtiter plate to generate individual step concentration gradients was attempted. FIG. 48 is a graph showing the results of this experiment.

Another assay relates to LDH. As to conditions: cited from earlier work.

Where two headings read alike, the source gives them in different places.

Sequence of P. falciparum LDH (Q27743 whole entry): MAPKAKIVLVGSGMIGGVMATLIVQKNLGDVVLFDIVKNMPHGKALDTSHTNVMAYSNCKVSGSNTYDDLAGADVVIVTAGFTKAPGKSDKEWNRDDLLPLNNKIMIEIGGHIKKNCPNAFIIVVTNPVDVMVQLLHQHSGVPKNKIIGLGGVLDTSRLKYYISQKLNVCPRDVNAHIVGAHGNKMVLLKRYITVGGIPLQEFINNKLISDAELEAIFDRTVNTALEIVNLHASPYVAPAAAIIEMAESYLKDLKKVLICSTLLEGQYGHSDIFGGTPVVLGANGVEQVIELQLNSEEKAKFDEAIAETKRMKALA

One may read the Km as the substrate concentration at which the rate is half of its maximum. As to `NC(=O)c1ccc[n+]([C@@H]2O[C@H](COP(=O)([O-])OP(=O)(O)OC[C@H]3O[C@@H](n4cnc5c(N)ncnc54)[C@H](O)[C@@H]3O)[C@@H](O)[C@H]2O)c1` [NAD^+], on P. falciparum LDH (titration of LDH with linear gradient of NAD+, initial rate conditions, read-out: Km (Michaelis constant)), the Km is 54 ± 2 µM.

As to `O=C(O)C(=O)O` [oxalate], the mechanism of inhibition result at P. falciparum LDH (with respect to substrate NAD+, continuous gradient) is “uncompetitive inhibition”; in assay [1] (with respect to NAD+, ambiguous), “uncompetitive inhibitor”; in assay [1] (with respect to lactate, not certain), “competitive inhibitor”; with LDH (with respect to NAD+), “uncompetitive”; in the assay on LDH (with respect to lactate) it was “competitive inhibitor”.
